Data taken from ChEMBL document CHEMBL1130662, “Preparation of meta-amidino-N,N-disubstituted anilines as potent inhibitors of coagulation factor Xa” (Bioorg Med Chem Lett, 1998).

What was measured:
Trypsin = Trypsin (Homo sapiens, UniProt P07477+P07478+P35030); experiment: Inhibition of serine protease trypsin enzyme.; type: protein assay, Oryctolagus cuniculus
Prothrombin = Prothrombin (Homo sapiens, UniProt P00734); experiment: Inhibition of serine protease thrombin enzyme.
Coagulation factor X [1] = target: T1, Coagulation factor X (Oryctolagus cuniculus, UniProt O19045); experiment: Inhibition of serine protease factor Xa enzyme.
T1 sequence (O19045 whole entry): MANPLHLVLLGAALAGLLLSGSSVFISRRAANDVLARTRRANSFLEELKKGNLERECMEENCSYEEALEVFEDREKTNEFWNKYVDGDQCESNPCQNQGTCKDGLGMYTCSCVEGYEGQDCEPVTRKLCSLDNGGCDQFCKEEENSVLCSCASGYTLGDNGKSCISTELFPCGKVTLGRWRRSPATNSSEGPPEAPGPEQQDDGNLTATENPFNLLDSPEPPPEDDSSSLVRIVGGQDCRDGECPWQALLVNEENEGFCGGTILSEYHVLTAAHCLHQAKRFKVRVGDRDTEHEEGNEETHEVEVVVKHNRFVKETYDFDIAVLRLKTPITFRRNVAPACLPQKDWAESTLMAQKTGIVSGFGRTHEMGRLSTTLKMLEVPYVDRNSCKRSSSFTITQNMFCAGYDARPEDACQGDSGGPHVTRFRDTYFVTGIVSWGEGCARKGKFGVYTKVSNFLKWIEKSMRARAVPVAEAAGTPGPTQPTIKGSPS

[2] = target: Tissue-type plasminogen activator (Homo sapiens, UniProt P00750); experiment: Compound was tested for the inhibition of serine protease tissue plasminogen activator enzyme.; set-up: species or system Oryctolagus cuniculus
Tissue-type plasminogen activator, sequence (P00750 whole entry): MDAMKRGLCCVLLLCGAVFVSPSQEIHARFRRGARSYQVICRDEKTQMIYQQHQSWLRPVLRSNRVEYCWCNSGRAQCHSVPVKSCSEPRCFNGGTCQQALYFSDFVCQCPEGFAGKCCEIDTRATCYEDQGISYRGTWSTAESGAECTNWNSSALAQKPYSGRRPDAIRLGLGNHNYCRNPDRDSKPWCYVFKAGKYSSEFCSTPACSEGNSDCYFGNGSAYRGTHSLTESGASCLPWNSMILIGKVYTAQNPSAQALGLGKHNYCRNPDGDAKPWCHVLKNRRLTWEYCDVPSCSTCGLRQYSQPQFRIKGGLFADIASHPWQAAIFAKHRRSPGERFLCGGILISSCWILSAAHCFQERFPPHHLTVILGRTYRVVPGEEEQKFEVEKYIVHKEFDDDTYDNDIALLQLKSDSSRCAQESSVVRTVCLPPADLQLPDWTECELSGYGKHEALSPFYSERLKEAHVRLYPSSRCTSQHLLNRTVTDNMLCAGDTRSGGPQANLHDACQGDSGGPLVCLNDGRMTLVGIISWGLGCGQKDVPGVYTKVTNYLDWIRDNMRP

[3] = Compound was tested for the inhibition of serine protease complement factor I enzyme.; set-up: species or system Oryctolagus cuniculus
Coagulation factor VII = target: T2, Coagulation factor VII (Homo sapiens, UniProt P08709); experiment: Compound was tested for the inhibition of serine protease factor VIIa enzyme.; set-up: species or system Oryctolagus cuniculus
T2 sequence (P08709 whole entry): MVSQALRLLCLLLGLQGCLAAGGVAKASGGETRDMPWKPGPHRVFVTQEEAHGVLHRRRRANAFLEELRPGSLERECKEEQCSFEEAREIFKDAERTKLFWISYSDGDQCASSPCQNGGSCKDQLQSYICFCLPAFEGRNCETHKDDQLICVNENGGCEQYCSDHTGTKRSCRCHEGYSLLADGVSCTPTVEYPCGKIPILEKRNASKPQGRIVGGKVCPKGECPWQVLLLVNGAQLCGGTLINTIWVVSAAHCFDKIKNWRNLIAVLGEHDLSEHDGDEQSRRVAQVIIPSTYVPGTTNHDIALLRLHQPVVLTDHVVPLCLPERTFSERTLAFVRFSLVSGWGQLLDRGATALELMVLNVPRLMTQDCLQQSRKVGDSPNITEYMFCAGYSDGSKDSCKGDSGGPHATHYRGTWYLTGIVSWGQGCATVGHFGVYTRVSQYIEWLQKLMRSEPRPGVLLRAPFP

Plasminogen = Plasminogen (Homo sapiens, UniProt P00747); experiment: Compound was tested for the inhibition of serine protease plasmin enzyme.; set-up: species or system Oryctolagus cuniculus
Plasminogen, sequence (P00747 97-580 limits assumed): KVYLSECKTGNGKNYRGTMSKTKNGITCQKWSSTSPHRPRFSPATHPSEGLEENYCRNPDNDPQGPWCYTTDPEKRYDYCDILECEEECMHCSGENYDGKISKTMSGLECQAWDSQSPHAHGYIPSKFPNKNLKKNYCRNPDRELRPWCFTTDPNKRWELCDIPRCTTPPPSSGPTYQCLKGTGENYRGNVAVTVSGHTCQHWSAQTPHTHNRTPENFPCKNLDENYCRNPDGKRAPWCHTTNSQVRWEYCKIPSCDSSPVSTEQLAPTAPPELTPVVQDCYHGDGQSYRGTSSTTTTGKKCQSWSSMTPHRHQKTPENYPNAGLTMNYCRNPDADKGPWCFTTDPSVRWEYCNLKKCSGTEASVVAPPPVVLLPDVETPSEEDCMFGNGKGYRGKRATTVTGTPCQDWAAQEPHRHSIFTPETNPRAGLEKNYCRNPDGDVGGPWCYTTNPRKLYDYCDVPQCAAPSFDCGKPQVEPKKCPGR
Plasminogen, sequence (P00747 581-810 limits assumed): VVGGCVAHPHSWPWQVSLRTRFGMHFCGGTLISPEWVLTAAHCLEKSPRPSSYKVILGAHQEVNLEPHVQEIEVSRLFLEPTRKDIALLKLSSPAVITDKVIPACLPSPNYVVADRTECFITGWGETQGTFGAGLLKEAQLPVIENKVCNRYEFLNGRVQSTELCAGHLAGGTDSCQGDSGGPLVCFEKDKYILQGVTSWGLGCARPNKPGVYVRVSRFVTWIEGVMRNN

Coagulation factor X [4] = target: T1, Coagulation factor X; experiment: Compound was tested for the inhibition of serine protease factor Xa enzyme.

Row | Structure (SMILES) | Ki (Trypsin) [nM] | Ki (Prothrombin) [nM] | Ki (Coagulation factor X [1]) [nM] | further results
1 | COC(=O)CN(CCc1ccc(-c2ccccc2S(N)(=O)=O)cc1)c1cccc(C(=N)N)c1.O=C(O)C(F)(F)F | 56 | 400 | 10 | –
2 | N=C(N)c1cccc(N(CCO)CCCc2ccc(-c3ccccc3S(N)(=O)=O)cc2)c1.O=C(O)C(F)(F)F | 710 | 1800 | 17 | –
3 | CC(=O)CN(CCCc1ccc(-c2ccccc2S(N)(=O)=O)cc1)c1cccc(C(=N)N)c1.O=C(O)C(F)(F)F | 360 | 900 | 16 | –
4 | COC(=O)CN(CCCOc1ccc(-c2ccccc2S(N)(=O)=O)cc1)c1cccc(C(=N)N)c1.O=C(O)C(F)(F)F | 77 | 600 | 6.7 | –
5 | N=C(N)c1cccc(N(CCCc2ccc(-c3ccccc3S(N)(=O)=O)cc2)CC(=O)O)c1.O=C(O)C(F)(F)F | 470 | 1400 | 12 | –
6 | COC(=O)CN(CCCc1ccc(-c2ccccc2S(N)(=O)=O)cc1)c1cccc(C(=N)N)c1.O=C(O)C(F)(F)F | 39 | 200 | 1.3 | Ki [2]: 33000 nM; IC50 [3]: 10000 nM; Ki (Coagulation factor VII): 4200 nM; Ki (Plasminogen): 300 nM
7 | COC(=O)CC1(C(=O)Nc2ccc(-c3ccccc3S(N)(=O)=O)cc2)CC(c2cccc(C(=N)N)c2)=NO1 (stereo not given) | – | – | 6.3 | –
8 | CC(C)OC(=O)CN(CCCc1ccc(-c2ccccc2S(N)(=O)=O)cc1)c1cccc(C(=N)N)c1.O=C(O)C(F)(F)F | 74 | 500 | 7.5 | –
9 | COC(=O)CC(CCc1ccc(C(=N)N)cc1)c1cccc(C(=N)N)c1 (stereo not given) | – | – | 34 | –
10 | COC(=O)CN(CCOc1ccc(-c2ccccc2S(N)(=O)=O)cc1)c1cccc(C(=N)N)c1.O=C(O)C(F)(F)F | 19 | 200 | 0.53 | –
11 | N=C(N)c1cccc(N(CCCc2ccc(-c3ccccc3S(N)(=O)=O)cc2)CCOc2ccccc2)c1 | – | 300 | 16 | –
12 | CC(C)OC(=O)CN(CCOc1ccc(-c2ccccc2S(N)(=O)=O)cc1)c1cccc(C(=N)N)c1.O=C(O)C(F)(F)F | 52 | 300 | 2.1 | –
13 | N=C(N)c1cccc(NS(=O)(=O)CCc2ccc(-c3ccccc3S(N)(=O)=O)cc2)c1.O=C(O)C(F)(F)F | 1400 | 17000 | 51 | –
14 | COCCN(CCCc1ccc(-c2ccccc2S(N)(=O)=O)cc1)c1cccc(C(=N)N)c1.O=C(O)C(F)(F)F | 330 | 900 | 11 | –
15 | N=C(N)c1cccc(NCCCc2ccc(-c3ccccc3S(N)(=O)=O)cc2)c1.O=C(O)C(F)(F)F | 850 | 6100 | 83 | –
16 | COC(=O)CC1(C(=O)Nc2ccc(C(=N)N)cc2)CC(c2cccc(C(=N)N)c2)=NO1 (stereo not given) | – | – | 94 | –
17 | CC(C)OC(=O)CN(c1cccc(C(=N)N)c1)S(=O)(=O)CCc1ccc(-c2ccccc2S(N)(=O)=O)cc1.O=C(O)C(F)(F)F | 220 | 15000 | 37 | –
18 | N=C(N)c1cccc(N(CCCc2ccc(-c3ccccc3S(N)(=O)=O)cc2)CC(N)=O)c1.O=C(O)C(F)(F)F | 820 | 3500 | 19 | –
19 | COC(=O)CN(c1cccc(C(=N)N)c1)S(=O)(=O)CCc1ccc(-c2ccccc2S(N)(=O)=O)cc1.O=C(O)C(F)(F)F | 180 | 9000 | 21 | –
20 | CC(=N)N1CC[C@H](Oc2ccc([C@H](Cc3ccc4ccc(C(=N)N)cc4c3)C(=O)O)cc2)C1 [DX-9065A] | – | – | – | IC50 (Coagulation factor X [4]): 41 nM
